Read-outs that look alike come from different tables or passages of the source.
Columns and labels:
[1] = target: T1, CypA Peptidyl Prolyl cis-trans Isomerase (PPlase) (Homo sapiens, UniProt P62937); experiment: Inhibition of CypA PPIase activity; assay type: biochemical
T1 construct: GST (cleaved yes); made in house
Method: An alternative methodology for analysing interaction with cyclophilins is described as follows: The PPlase activity of recombinant CypA or D, produced by thrombin cleavage of GST-CypA or D, was determined by following the rate of hydrolysis of N-succinyl-Ala-Ala-Pro-Phe-p-nitroanilide by chymotrypsin. Chymotrypsin only hydrolyzes the trans form of the peptide, and hydrolysis of the cis form, the concentration of which is maximized by using a stock dissolved in trifluoroethanol containing 470 mM LiCl, is limited by the rate of cis-trans isomerization. CypA or D was equilibrated for 1 h at 5° C. with selected test article using a drug concentration range from 0.1 to 20 nM. The reaction was started by addition of the peptide, and the change in absorbance was monitored spectrophotometrically at 10 data points per second. The blank rates of hydrolysis (in the absence of CypA or D) were subtracted from the rates in the presence of CypA or D. The initial rates of the enzymatic reaction were analyzed by first-order regression analysis of the time course of the change in absorbance.

[2] = tested on: HCV genotype 1b replicon in Huh5.2 cells; experiment: HCV genotype 1b replicon assay using Huh5.2 cells (antiviral effect, luciferase); assay type: cell-based, Hepatitis C virus; conditions: for EC50: Hepatitis C virus, Huh-5-2, genotype 1b replicon, Huh5.2 cells, 72 hours; for Selectivity index (CC50/EC50): Huh5.2 replicon assay
Method: (§1) Dilution series are prepared; each dilution series is performed in at least duplicate.
For the evaluation of antiviral effects, assay medium is aspirated and the cell monolayers are washed with PBS. The wash buffer is aspirated, 25 μL of Glo Lysis Buffer (Cat. N°. E2661, Promega) is added after which lysis is allowed to proceed for 5 min at room temperature. Subsequently, 50 μL of Luciferase Assay System (Cat. N^o. E1501, Promega) is added and the luciferase luminescence signal is quantified immediately (1000 ms integration time/well, Safire^2, Tecan). Relative luminescence units are converted to percentage of untreated controls.
(§2) The selectivity index (SI), indicative of the therapeutic window of the compound, is calculated as CC50/EC50.

[3] = Anti-metabolic effect (MTS) in Huh5.2 replicon cells; conditions: human
Method: as §1, §2

[4] = Mouse in vivo oral and iv PK; conditions: male, whole blood, CD1 mice
Method: For sanglifehrin analogues, whole blood is analysed. Compounds are formulated in 5% ethanol/5% cremophor EL/90% saline for both p.o. and i.v. administration. Groups of 3 male CD1 mice are dosed with either 1 mg/kg i.v. or 5 or 10 mg/kg p.o. Blood samples (40 μL) are taken via saphenous vein, pre-dose and at 0.25, 0.5, 2, 8, and 24 hours, and diluted with an equal amount of dH20 and put on dry ice immediately. Samples are stored at −70° C. until analysis. The concentration of the compound of the invention or parent compound in the sample is determined via LCMS as follows: 20 μL of blood:H2O (1:1, v/v)/PK sample is added with 20 μL Internal standard (hydroxyl macrocycle, 6) at 100 ng/mL, 20 μL working solution/MeOH and 150 μL of ACN, vortexed for 1 minute at 1500 rpm, and centrifuged at 12000 rpm for 5 min. The supernatant is then injected into LC-MS/MS. The time-course of blood concentrations is plotted and used to derive area under the whole blood concentration-time curve (AUC—which is directly proportional to the total amount of unchanged drug that reaches the systemic circulation). These values are used to generate PK parameters where possible.
To assess the pharmacokinetics of the compounds in an in vivo setting, compounds were dosed po at 10 or 5 mg/kg and iv at 1 mg/kg to groups of CD1 mice. Pharmacokinetic analysis was carried out as described in the general methods. […]

[5] = immunosuppressive activity; cited from earlier work
HIV = HIV antiviral assay using HeLa cells; assay type: cell-based, Human Immunodeficiency Virus

T1 sequence (P62937 whole entry): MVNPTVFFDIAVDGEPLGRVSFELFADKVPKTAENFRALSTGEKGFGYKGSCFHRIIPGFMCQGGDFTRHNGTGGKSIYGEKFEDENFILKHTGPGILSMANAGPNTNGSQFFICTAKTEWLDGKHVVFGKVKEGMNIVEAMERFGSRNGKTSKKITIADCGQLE

Structure (SMILES)	IC50 ([1]; read-out: CypA PPIase IC50) [nM]	EC50 [2] [nM]	Selectivity index (CC50/EC50) [2]	CC50 at 72 h [3] [nM]	other results
CON(C)C(=O)/C=C/C=C(\C)[C@@H]1C/C=C/C=C/[C@H](O)[C@H](C)[C@@H](O)[C@@H](CCC(C)=O)C(=O)N[C@@H](C(C)C)C(=O)N[C@@H](Cc2cc(O)cc(F)c2)C(=O)N2CCCC(N2)C(=O)O1 (stereo partly shown) [Compound 23]	0.33	67	>1493	> 100000	clearance ([4]; iv at 1 mg/kg): 0.65 mL/min/kg; AUC(0-t) ([4]; po, dose level 5 mg/kg, read-out: po AUClast): 2760 ng·h/mL
CC(=O)CC[C@H]1C(=O)N[C@@H](C(C)C)C(=O)N[C@@H](Cc2cc(O)cc(F)c2)C(=O)N2CCCC(N2)C(=O)O[C@H](/C(C)=C/C=C/C(=O)Nc2ccccn2)C/C=C/C=C/[C@H](O)[C@H](C)[C@H]1O (stereo partly shown) [Compound 25]	–	66	>1515	> 100000	IC50 [1]: 1.15 nM
CC(=O)CC[C@H]1C(=O)N[C@@H](C(C)C)C(=O)N[C@@H](Cc2ccc(C)c(O)c2)C(=O)N2CCCC(N2)C(=O)O[C@H](/C(C)=C/C=C/C(=O)N2CCCCO2)C/C=C/C=C/[C@H](O)[C@H](C)[C@H]1O (stereo partly shown) [Compound 27]	0.35	121	>826	–	CC50 at 72 h ([3]; Huh5.2 cells containing the HCV genotype 1b replicon): > 100000 nM
CC[C@H]1C[C@H](C)[C@@]2(NC1=O)O[C@@H](C[C@H](O)[C@@H](C)CC/C=C/C=C(\C)[C@@H]1C/C=C/C=C/[C@H](O)[C@H](C)[C@@H](O)[C@@H](CCC(C)=O)C(=O)N[C@@H](C(C)C)C(=O)N[C@@H](Cc3cccc(O)c3)C(=O)N3CCC[C@H](N3)C(=O)O1)[C@H](C)[C@H](O)[C@@H]2C [Sanglifehrin A, 5, Sanglifehrin A]	–	–	–	–	less potent than Cyclosporine A [5]: 10 fold
C[C@H](Cn1cnc2c(N)ncnc21)OCP(=O)(O)O [Tenofovir]	–	–	–	–	EC50 (HIV): 1050 nM

— patent US9139613B2, “Macrocyclic compounds and methods for their production” (NEUROVIVE PHARMACEUTICAL AB, priority 2011, dated 2015)
